From ChEMBL document CHEMBL1201862, “PubChem BioAssay data set” (2004)
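Dose response: 5 concentrations. Exposure: 48 h. Format: 96-well plates. Endpoint: linear interpolation; highest concentration if not reached. At the GI50, growth is halved.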 Activity calls are given as the source filed them. Cut-off read from the data, not from the text of the source: active = GI50 up to about 1.1 µM and inactive = higher.

How the values were obtained:
Assay in all cases: growth of human tumour cells (NCI), 48 h
OVCAR-3 = system: OVCAR-3
NCI/ADR-RES = system: NCI/ADR-RES
LOX IMVI = system: LOX IMVI
SF-539 = system: SF-539
U-251 = system: U-251
PC-3 = system: PC-3
RPMI-8226 = system: RPMI-8226
HOP-62 = system: HOP-62
DMS-114 = system: DMS-114
Hs-578T = system: Hs-578T
UACC-257 = system: UACC-257
Malme-3M = system: Malme-3M
OVCAR-8 = system: OVCAR-8
SK-OV-3 = system: SK-OV-3
BT-549 = system: BT-549
HOP-92 = system: HOP-92
MDA-N = system: MDA-N
K562 = system: K562
SNB-19 = system: SNB-19
NCI-H522 = system: NCI-H522

For `CCN(CC)c1ccc(C(=C2C=CC(=[N+](CC)CC)C=C2)c2ccc(N(CC)CC)cc2)cc1`, the GI50 (OVCAR-3) was 0.0393 µM (active), the GI50 (NCI/ADR-RES) was 0.521 µM (active) and the GI50 (LOX IMVI) was 0.0541 µM (active). For the same compound, the GI50 (SF-539) was 0.195 µM (active), the GI50 (U-251) was 0.0412 µM (active) and the GI50 (PC-3) was 0.0423 µM (active). The GI50 (RPMI-8226) was 0.0342 µM (active), the GI50 (HOP-62) was 0.238 µM (active) and the GI50 (DMS-114) was 0.0507 µM (active). For the same compound, the GI50 (Hs-578T) was 0.0889 µM (active), the GI50 (UACC-257) was 0.132 µM (active) and the GI50 (Malme-3M) was 0.148 µM (active). For the same compound, the GI50 (OVCAR-8) was 0.0391 µM (active), the GI50 (SK-OV-3) was 0.0773 µM (active) and the GI50 (BT-549) was 0.0332 µM (active). The GI50 (HOP-92) was 0.211 µM (active), the GI50 (MDA-N) was 0.103 µM (active) and the GI50 (K562) was 0.0353 µM (active). For the same compound, the GI50 (SNB-19) was 0.101 µM (active) and the GI50 (NCI-H522) was 0.113 µM (active).
`CN(C)CC1(C)CC/C(=C\c2ccccc2)C1=O` (configuration not stated) was tested, and the GI50 (OVCAR-3) was > 100 µM (inactive), the GI50 (LOX IMVI) was > 100 µM (inactive) and the GI50 (SF-539) was > 100 µM (inactive). For the same compound, the GI50 (U-251) was > 100 µM (inactive), the GI50 (RPMI-8226) was 27.5 µM (inactive) and the GI50 (HOP-62) was > 100 µM (inactive). For the same compound, the GI50 (DMS-114) was > 100 µM (inactive), the GI50 (UACC-257) was > 100 µM (inactive) and the GI50 (Malme-3M) was > 100 µM (inactive). The GI50 (OVCAR-8) was > 100 µM (inactive), the GI50 (HOP-92) was > 100 µM (inactive) and the GI50 (K562) was > 100 µM (inactive). The GI50 (SNB-19) was 44.1 µM (inactive) and the GI50 (NCI-H522) was 39.8 µM (inactive).
`COC(=O)N/N=C/C(=C/Nc1ccccc1)[N+](=O)[O-]` was tested, and the GI50 (OVCAR-3) was > 100 µM (inactive), the GI50 (LOX IMVI) was > 100 µM (inactive) and the GI50 (U-251) was > 100 µM (inactive). The GI50 (RPMI-8226) was > 100 µM (inactive), the GI50 (HOP-62) was > 100 µM (inactive) and the GI50 (DMS-114) was > 100 µM (inactive). The GI50 (UACC-257) was > 100 µM (inactive), the GI50 (OVCAR-8) was > 100 µM (inactive) and the GI50 (SK-OV-3) was > 100 µM (inactive). For the same compound, the GI50 (HOP-92) was 21 µM (inactive), the GI50 (K562) was > 100 µM (inactive) and the GI50 (SNB-19) was > 100 µM (inactive). The GI50 (NCI-H522) was 86.7 µM (inactive).
`C/C(=N\NC(=O)CC(=O)Nc1ccc(Cl)cc1)c1cc2ccccc2oc1=O` was tested, and the GI50 (OVCAR-3) was > 100 µM (inactive), the GI50 (LOX IMVI) was > 100 µM (inactive) and the GI50 (SF-539) was > 100 µM (inactive). The GI50 (U-251) was > 100 µM (inactive), the GI50 (RPMI-8226) was > 100 µM (inactive) and the GI50 (HOP-62) was > 100 µM (inactive). For the same compound, the GI50 (DMS-114) was > 100 µM (inactive), the GI50 (UACC-257) was > 100 µM (inactive) and the GI50 (Malme-3M) was > 100 µM (inactive). The GI50 (OVCAR-8) was > 100 µM (inactive), the GI50 (SK-OV-3) was > 100 µM (inactive) and the GI50 (K562) was > 100 µM (inactive). For the same compound, the GI50 (SNB-19) was > 100 µM (inactive) and the GI50 (NCI-H522) was > 100 µM (inactive).
With `CCCN(CCCCC(NC(C)=O)C(=O)NCc1ccccc1)C(=O)N(C)N=O` (configuration not stated) the GI50 (OVCAR-3) was > 100 µM (inactive), the GI50 (LOX IMVI) was > 100 µM (inactive) and the GI50 (SF-539) was > 100 µM (inactive). The GI50 (U-251) was > 100 µM (inactive), the GI50 (RPMI-8226) was > 100 µM (inactive) and the GI50 (HOP-62) was > 100 µM (inactive). The GI50 (DMS-114) was > 100 µM (inactive), the GI50 (UACC-257) was > 100 µM (inactive) and the GI50 (Malme-3M) was > 100 µM (inactive). For the same compound, the GI50 (OVCAR-8) was > 100 µM (inactive), the GI50 (SK-OV-3) was > 100 µM (inactive) and the GI50 (HOP-92) was > 100 µM (inactive). For the same compound, the GI50 (K562) was > 100 µM (inactive), the GI50 (SNB-19) was > 100 µM (inactive) and the GI50 (NCI-H522) was > 100 µM (inactive).
`N=C(N)NS(=O)(=O)c1ccc(NCc2c3ccccc3nc3ccccc23)cc1` was tested, and the GI50 (OVCAR-3) was 11.6 µM (inactive), the GI50 (LOX IMVI) was 0.946 µM (active) and the GI50 (SF-539) was 0.483 µM (active). For the same compound, the GI50 (U-251) was 0.354 µM (active), the GI50 (PC-3) was 16.1 µM (inactive) and the GI50 (RPMI-8226) was 2.82 µM (inactive). For the same compound, the GI50 (HOP-62) was 0.678 µM (active), the GI50 (DMS-114) was 0.157 µM (active) and the GI50 (Hs-578T) was 1.5 µM (inactive). The GI50 (UACC-257) was 14.5 µM (inactive), the GI50 (Malme-3M) was 4.75 µM (inactive) and the GI50 (OVCAR-8) was 3.78 µM (inactive). For the same compound, the GI50 (SK-OV-3) was 2.73 µM (inactive), the GI50 (BT-549) was 7.16 µM (inactive) and the GI50 (HOP-92) was 0.24 µM (active). The GI50 (MDA-N) was 71.1 µM (inactive), the GI50 (K562) was 2.72 µM (inactive) and the GI50 (SNB-19) was 0.711 µM (active). For the same compound, the GI50 (NCI-H522) was 2.28 µM (inactive).
In the case of `C/C(=N\NC(N)=S)C(CN(CC(C)C)CC(C)C)C(=O)Nc1ccc(C)cc1C` (configuration not stated), the GI50 (OVCAR-3) is reported as > 100 µM (inactive), the GI50 (LOX IMVI) is reported as > 100 µM (inactive) and the GI50 (SF-539) is reported as > 100 µM (inactive). For the same compound, the GI50 (U-251) was > 100 µM (inactive), the GI50 (HOP-62) was > 100 µM (inactive) and the GI50 (DMS-114) was > 100 µM (inactive). The GI50 (UACC-257) was > 100 µM (inactive), the GI50 (Malme-3M) was > 100 µM (inactive) and the GI50 (OVCAR-8) was > 100 µM (inactive). For the same compound, the GI50 (SK-OV-3) was > 100 µM (inactive), the GI50 (HOP-92) was > 100 µM (inactive) and the GI50 (K562) was > 100 µM (inactive). The GI50 (SNB-19) was > 100 µM (inactive) and the GI50 (NCI-H522) was > 100 µM (inactive).
`CC(=O)NC1C(OCc2ccccc2)OC(COC(=O)CCCCCCCCCCNc2ccc([N+](=O)[O-])c3[nH]c4ccccc4c(=O)c23)C(O)C1OC(C)C(=O)NC(C)C(=O)NC(CCC(N)=O)C(=O)OCc1ccccc1` (configuration not stated) was tested, and the GI50 (OVCAR-3) was > 100 µM (inactive), the GI50 (LOX IMVI) was > 100 µM (inactive) and the GI50 (SF-539) was > 100 µM (inactive). For the same compound, the GI50 (U-251) was > 100 µM (inactive), the GI50 (RPMI-8226) was > 100 µM (inactive) and the GI50 (HOP-62) was > 100 µM (inactive). The GI50 (DMS-114) was > 100 µM (inactive), the GI50 (UACC-257) was > 100 µM (inactive) and the GI50 (OVCAR-8) was > 100 µM (inactive). For the same compound, the GI50 (SK-OV-3) was > 100 µM (inactive), the GI50 (K562) was > 100 µM (inactive) and the GI50 (SNB-19) was > 100 µM (inactive). The GI50 (NCI-H522) was > 100 µM (inactive).
